This note sets out measurements from paper PMC7256108 (Cellular and Molecular Life Sciences: CMLS, 2019).

Common to all, as to assay type: cell-based
Assay [1] deals with sphingosine-1-phosphate receptor 4 (S1P4). The assay can be described thus: cAMP-luminescence GloSensor assay, endogenously expressed S1P4. Particulars: footnote b: EC50 in nmol/L. As to the method: (§1) The assay was performed as reported above.
(§2) All data are presented as mean ± SD.

Another assay deals with T1, OR2W1 L202C (Homo sapiens, UniProt Q9Y3N9, L202C).
T1 construct: full-length gene-specific forward and reverse primers were added; 39aa rho-tag; expressed in transfected cells; host or cells: NxG 108CC15 or HEK-293 cells
T1 sequence (Q9Y3N9 1-320 L202C): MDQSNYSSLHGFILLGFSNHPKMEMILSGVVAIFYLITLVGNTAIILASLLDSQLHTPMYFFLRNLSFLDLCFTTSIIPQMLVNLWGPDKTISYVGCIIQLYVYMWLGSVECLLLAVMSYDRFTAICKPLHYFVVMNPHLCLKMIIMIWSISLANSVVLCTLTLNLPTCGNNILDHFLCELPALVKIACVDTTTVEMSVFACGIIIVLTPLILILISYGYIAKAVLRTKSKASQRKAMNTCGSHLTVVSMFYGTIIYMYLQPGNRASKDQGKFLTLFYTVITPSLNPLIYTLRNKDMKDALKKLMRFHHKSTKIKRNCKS
The experiment in a line: GloSensor assay, OR2W1 L202C. As to the method: (§3) All receptor variants used were generated by PCR-based site-directed mutagenesis in two steps. Gene-specific primers (mutation primers) were used according to Table S2 and Table S3. The mutation primers, which carried the changed nucleotides, were designed overlapping.
as §1, §2

The target of a further assay is T2, OR2W1 Y252A (Homo sapiens, UniProt Q9Y3N9, Y252A).
T2 construct: 39aa rho-tag; expressed in transfected cells; host or cells: NxG 108CC15 or HEK-293 cells
T2 sequence (Q9Y3N9 1-320 Y252A): T1 sequence (Q9Y3N9 1-320 L202C) with C202L, Y252A
The experiment in a line: GloSensor assay, OR2W1 Y252A. To be noted: ligands 300 µmol/L. The method, then:
as §3, §1, §2

Another assay addresses T3, OR2W1 Y252A/Y259A (Homo sapiens, UniProt Q9Y3N9, Y252A/Y259A).
T3 construct: full-length gene-specific forward and reverse primers were added; 39aa rho-tag; expressed in transfected cells; host or cells: NxG 108CC15 or HEK-293 cells
T3 sequence (Q9Y3N9 1-320 Y252A/Y259A): T1 sequence (Q9Y3N9 1-320 L202C) with C202L, Y252A, Y259A
The assay can be described thus: GloSensor assay, OR2W1 Y252A/Y259A. Particulars: ligands 300 µmol/L. As to the method:
as §3, §1, §2

In a further assay the target is T4, OR2W1 S109A (Homo sapiens, UniProt Q9Y3N9, S109A).
T4 construct: 39aa rho-tag; expressed in transfected cells; host or cells: NxG 108CC15 or HEK-293 cells
T4 sequence (Q9Y3N9 1-320 S109A): T1 sequence (Q9Y3N9 1-320 L202C) with S109A, C202L
The assay can be described thus: GloSensor assay, OR2W1 S109A. As to the method:
as §3, §1, §2

The target in a further assay is T5, OR2W1 L202S (Homo sapiens, UniProt Q9Y3N9, L202S).
T5 construct: 39aa rho-tag; expressed in transfected cells; host or cells: NxG 108CC15 or HEK-293 cells
T5 sequence (Q9Y3N9 1-320 L202S): T1 sequence (Q9Y3N9 1-320 L202C) with C202S
The assay can be described thus: GloSensor assay, OR2W1 L202S. The method, then: as §3, §1, §2

The next assay addresses T6, OR2W1 Y259A (Homo sapiens, UniProt Q9Y3N9, Y259A).
T6 construct: full-length gene-specific forward and reverse primers were added; 39aa rho-tag; expressed in transfected cells; host or cells: NxG 108CC15 or HEK-293 cells
T6 sequence (Q9Y3N9 1-320 Y259A): T1 sequence (Q9Y3N9 1-320 L202C) with C202L, Y259A
The experiment in a line: GloSensor assay, OR2W1 Y259A. To be noted: ligands 300 µmol/L. The method, then:
as §3, §1, §2

The next assay deals with T7, OR2W1 wt (Homo sapiens, UniProt Q9Y3N9).
T7 construct: 39aa rho-tag; expressed in transfected cells; host or cells: NxG 108CC15 or HEK-293 cells
T7 sequence (Q9Y3N9 1-320): T1 sequence (Q9Y3N9 1-320 L202C) with C202L
The assay can be described thus: cAMP-luminescence GloSensor assay, recombinant OR2W1 wt. The method, then:
as §1, §2

A further assay has as its target T8, OR2T11 C119R (Homo sapiens, UniProt Q8NH01, C119R).
T8 construct: expressed in transfected cells; host or cells: NxG 108CC15 or HEK-293 cells
The assay can be described thus: GloSensor assay, OR2T11 C119R.
Description: as §2
Concentration-response relation of 3-mercapto-2-methylpentan-1-ol on OR2M3 in the absence or presence of each 30 µmol/L CuCl2 (a), and 30 µmol/L CuCl2 and the copper chelator TEPA (b). Concentration-response relation of 2-methylpropane-2-thiol on OR2T11 C119R in the absence or presence of 30 µmol/L CuCl2 (c). Concentration-response relation of 3-mercapto-2-methylpentan-1-ol on OR2M3 in the absence or presence of each 30 µmol/L FeCl3 (d); NiCl2 (e); CoCl2 (f); ZnSO4 (g); AgAc (h); AgNO3 (i) and colloidal silver (j). Comparison of efficacies of 20 µmol/L 3-mercapto-2-methylpentan-1-ol on OR2M3 in the absence or presence of different metal ions at 30 µmol/L (k). Note that the same data set in the absence of supplemented Cu^2+ (grey) is given in sub-panels (a-b, d-j) for didactic reasons. Data were mock control-subtracted, normalized to the OR2M3 wt signal in response to 3-mercapto-2-methylpentan-1-ol (20 µmol/L), measured in the absence of Cu^2+ (a-b, d-k) or rather normalized to the OR2T11 C119R signal in response to 2-methylpropan-2-thiol (100 µmol/L), measured in the presence of Cu^2+ (c), and shown as mean ± SD (n = 3 – 6). RLU = relative luminescence unit. 3MMP = 3-mercapto-2-methylpentan-1-ol. Note that for didactical reasons the concentration-response relations in Fig. 1b and Fig. S5a are the identical data set. […]

For the next assay, the target named is T9, OR1A1 wt (Homo sapiens, UniProt Q9P1Q5).
T9 construct: 39aa rho-tag; expressed in transfected cells; host or cells: NxG 108CC15 or HEK-293 cells
T9 sequence (Q9P1Q5 1-309): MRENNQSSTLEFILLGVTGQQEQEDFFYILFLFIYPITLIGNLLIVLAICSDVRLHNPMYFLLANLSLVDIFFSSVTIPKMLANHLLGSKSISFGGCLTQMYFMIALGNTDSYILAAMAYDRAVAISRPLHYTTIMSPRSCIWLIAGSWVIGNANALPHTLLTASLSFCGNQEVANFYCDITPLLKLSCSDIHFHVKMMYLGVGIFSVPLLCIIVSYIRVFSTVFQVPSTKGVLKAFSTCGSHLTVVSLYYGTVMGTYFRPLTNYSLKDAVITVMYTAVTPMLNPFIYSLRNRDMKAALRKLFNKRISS
The assay can be described thus: cAMP-luminescence GloSensor assay, recombinant OR1A1 wt. To be noted: for EC50: OR1A1 wt. The method, then: as §1, §2

The next assay concerns the target T10, OR2M3 wt (Homo sapiens, UniProt Q8NG83).
T10 construct: full-length gene-specific forward and reverse primers were added; 39aa rho-tag; expressed in transfected cells; host or cells: NxG 108CC15 or HEK-293 cells
T10 sequence (Q8NG83 1-312): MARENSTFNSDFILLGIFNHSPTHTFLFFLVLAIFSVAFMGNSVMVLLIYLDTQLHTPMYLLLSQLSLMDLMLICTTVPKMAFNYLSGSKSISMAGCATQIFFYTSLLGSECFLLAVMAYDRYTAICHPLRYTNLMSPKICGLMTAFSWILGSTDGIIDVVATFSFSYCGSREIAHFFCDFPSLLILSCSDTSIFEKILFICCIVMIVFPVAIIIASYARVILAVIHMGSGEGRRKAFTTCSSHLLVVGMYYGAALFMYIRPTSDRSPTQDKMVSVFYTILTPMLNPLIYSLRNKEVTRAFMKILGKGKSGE
The experiment in a line: cAMP-luminescence GloSensor assay, recombinant OR2M3 wt. Particulars: no odorant. The method, then:
as §1, §2

Setting [2] is: 10 µmol/L Cu^2+, read-out: EC50 in the presence of Cu^2+.
Where [3] appears, read: read-out: EC50 in the absence of Cu^2+.
Where [4] appears, read: EC50 in the presence of Cu^2+, 10 µmol/L Cu^2+.
Setting [5] is: mean ± SD (n = 3–5), read-out: EC50 in the absence of Cu^2+.

SMILES strings stand for the structures. Changes are numbered by the printed parent chain. Read-outs that look alike come from different tables or passages of the source.

T8 sequence (Q8NH01 whole entry C119R): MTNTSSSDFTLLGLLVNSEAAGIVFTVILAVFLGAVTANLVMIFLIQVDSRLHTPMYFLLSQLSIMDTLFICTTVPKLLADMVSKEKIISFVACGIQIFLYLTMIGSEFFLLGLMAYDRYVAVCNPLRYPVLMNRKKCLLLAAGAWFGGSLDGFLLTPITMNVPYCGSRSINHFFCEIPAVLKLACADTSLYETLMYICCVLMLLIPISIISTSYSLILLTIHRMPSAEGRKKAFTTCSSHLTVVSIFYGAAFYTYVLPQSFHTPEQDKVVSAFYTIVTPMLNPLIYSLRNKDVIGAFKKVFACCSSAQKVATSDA

In the case of `COCCN=C1S/C(=C\c2cc(C)n(-c3ccc(F)cc3F)c2C)C(=O)N1C` [CYM50308], the EC50 (as a rule, the concentration at which the effect is half-maximal) in assay [1] (setting [2]) was determined as 0.344 ± 0.091 µM; in assay [1] (setting [3]), 0.517 ± 0.0746 µM.

In the case of `C=CCOC(=O)Cc1ccccc1` [Allyl phenyl acetate, allyl phenyl acetate], the EC50 stood at 130 ± 82.5 µM at OR2W1 L202C (EC50 in the absence of Cu^2+); 73 ± 42.1 µM on OR2W1 L202C (setting [4]); 46 ± 11.6 µM on OR2W1 S109A (EC50 in the absence of Cu^2+); 119 ± 19.9 µM on OR2W1 S109A (setting [4]); 37.6 ± 11.7 µM on OR2W1 L202S (EC50 in the absence of Cu^2+); 46 ± 14.3 µM on OR2W1 L202S (setting [4]). For the same compound, the EC50 on OR2W1 wt (EC50 in the absence of Cu^2+, mean ± SD (n = 3–5)) amounted to 64.4 ± 3.58 µM; at OR2W1 wt (setting [4]), 55.2 ± 8.59 µM. The “agonist function in mutant receptor” value at OR2W1 Y252A, at OR2W1 Y252A/Y259A and on OR2W1 Y259A was “non-functional” each time.

In the case of `CC(C)(C)S` [2-methylpropane-2-thiol], the Relative amplitude at OR2T11 C119R (30 µmol/L CuCl2, normalized to OR2T11 C119R signal (100 µmol/L agonist) in the presence of Cu^2+) worked out at 1. Also, the EC50 on OR2T11 C119R (presence of 30 µmol/L CuCl2 (footnote d)) stood at 0.25 ± 0.19 µM.

On to `SCCc1ccccc1` [2-Phenylethanethiol, 2-phenylethanethiol], for which the concentration giving a half-maximal response (EC50) came to 63.4 ± 3.77 µM on OR2W1 L202C (setting [2]); 65.1 ± 10.8 µM on OR2W1 L202C (setting [3]); 73.1 ± 16.4 µM at OR1A1 wt (setting [2]); 206 ± 21.5 µM at OR1A1 wt (setting [3]); 38.9 ± 5.38 µM on OR2W1 S109A (setting [2]); 34.4 ± 9.98 µM at OR2W1 S109A (setting [3]). Further, the EC50 at OR2W1 L202S (setting [2]) came to 96.7 ± 4.66 µM; at OR2W1 L202S (setting [3]), 97 ± 13 µM; at OR2W1 wt (setting [2]), 106.2 ± 0.93 µM; on OR2W1 wt (setting [5]), 37.8 ± 0.62 µM. The “efficacy in activating OR1A1” value on OR1A1 wt (presence of Cu^2+ at 10 µmol/L) was “reduced”. In addition, the “agonist function in mutant receptor” value at OR2W1 Y252A, on OR2W1 Y252A/Y259A and at OR2W1 Y259A was “non-functional” in each case.

Take `C=C(C)[C@@H]1CC=C(C)C(=O)C1` [(R)-(-)-Carvone, (R)-(-)-carvone]: the EC50 on OR1A1 wt (setting [2]) worked out at 159 ± 43.1 µM; at OR1A1 wt (setting [3]) it was 126 ± 34.1 µM.

Turning to `[Cl][Cu][Cl]` [Cu^2+, copper(II) chloride], at OR2M3 wt (Cu^2+ supplementation > 10 µmol/L), the “odorant-independent constitutive activity of OR2M3” value was “decreased”. For the same compound, the “basal activity of OR2M3” value on OR2M3 wt (Cu^2+ supplementation of 10 µmol/L) was “did not inhibit”.

Turning to `CCCC(S)CCOC(C)=O` (stereo not shown) [3-Mercaptohexyl acetate, 3-mercaptohexyl acetate], the concentration giving a half-maximal response (EC50) on OR2W1 L202C (setting [2]) amounted to 114 ± 10.5 µM; at OR2W1 L202C (setting [3]) it was 98.9 ± 7.49 µM; on OR1A1 wt (setting [2]), 354 ± 113 µM; at OR1A1 wt (setting [3]), 405 ± 86.7 µM; at OR2W1 S109A (setting [2]), 127 ± 84.9 µM; at OR2W1 S109A (setting [3]) it was 146 ± 23 µM. Also, the EC50 at OR2W1 L202S (setting [2]) stood at 311 ± 22.1 µM; on OR2W1 L202S (setting [3]) it was 146 ± 6.48 µM; at OR2W1 wt (setting [2]), 121 ± 1.59 µM; at OR2W1 wt (setting [5]), 132 ± 20.9 µM. Also, the “agonist function in mutant receptor” value on OR2W1 Y252A, on OR2W1 Y252A/Y259A and on OR2W1 Y259A was “non-functional” each time.
